Assay results taken from US9604973B2, “Anti-cancer polyketide compounds” (priority 2012, dated 2017).
Entries after “also recorded” stand apart in the source; their conditions may differ.

How the values were obtained:
Assay type in all cases: cell-based, human
CLL cells = test: Flow cytometry, % specific induced apoptosis (DiOC6/PI) in primary CLL cells; settings: 48 hours
Experimental: (§1) FIG. 20A-20C: FD-895 and PLAD induce apoptosis in CLL cells but not in normal lymphocytes with a TP53 independent activity: Primary leukemia B cells from CLL (FIG. 20A) patient with del (17p) and Tp53 mutation, (FIG. 20B) patient with wild type p53 and sensitive to F-Ara-A and (FIG. 20C) normal lymphocytes from healthy donor were incubated with FD-895, PLAD and F-Ara-A (0, 10, 100, 1000 10,000 nM) for 48 hours.
(§2) FIG. 21: FD-895 and PLAD induce apoptosis in CLL cells not ONLY independently of Tp53 but also independently of SF3B1 mutational status: Primary leukemia B cells from CLL patient with SF3B1 wild, SF3B1 mutation, 17p DEL and normal B and T lymphocytes from healthy donor were incubated with FD-895 and PLAD with 100 nM for 48 hours. After incubation, the samples were harvested and % SIA was measured by flow cytometry as described above. […] Each dots represents number of CLL patient sample and normal B or T cells.
Peripheral blood mononuclear cells (PBMC) from patients with CLL were obtained from the CLL Research Consortium (CRC) tissue bank. The blood samples were collected after obtaining a written informed consent from the patients under a protocol approved by the institutional review board of The University of California, San Diego. All patients met criteria for CLL.^1 CLL B cells and PBMCs were separated from heparinized venous blood of the B-CLL patients by density gradient centrifugation using Ficoll-Hypaque (GE healthcare) as described earlier.^2 The samples that were used had more than 95% positive cells for CD19 and CD5+, as assessed by flow cytometry. CLL B cells were maintained in RPMI 1640 medium supplemented with 10% FBS, 2 mM L-glutamine, and 100 U/mL of penicillin and 100 μg/mL of streptomycin at 37° C. in an atmosphere of 5% CO2.
(§3) Apoptotic and viable cells were discriminated via flow cytometry of cells stained with 3,3′ dihexyloxacarbocyanine iodide (DiOC6) (Molecular Probes, Eugene, Oreg., USA) and propidium iodine (Sigma, St Louis, Mo., USA), as described.^3 Using this method viable cells exclude PI and stain brightly positive for DiOC6.

[1] = tested on: normal B lymphocytes from healthy donor; test: Flow cytometry, % specific induced apoptosis in normal B lymphocytes; settings: 48 hours
Experimental: as §1, §2
Normal B cells were purified from buffy coats of healthy volunteers, obtained from San Diego blood bank. Positive isolation with Dynabeads® CD19 pan B and DETACHaBEAD CD19 (Invitrogen Life Technologies, USA) were used to achieve more than 95% purity by flow cytometry analysis.
as §3

JURKAT = test: Flow cytometry cell viability/% SIA in leukemia cell line; settings: 0-10,000 nM, 48 hours
Experimental: (§4) FIG. 22: Activity of FD-895, PLAD and F-Ara-A in different human leukemia cell lines: Different leukemia cell lines including MEC1, RAJI and JURKAT were incubated with FD-895, PLAD and F-Ara-A (0, 10, 100, 1000, 10,000 nM) for 48 hours. The samples were harvested and cell viability was measured by flow cytometry using propidium iodine (PI) exclusion and mitochondrial membrane potential changes using DiOC6. This experiments was performed 2 times independently.
(§5) The leukemia cell lines, MEC1, RAJI and JURKAT were maintained in CLL B cells were maintained in RPMI 1640 medium supplemented with 10% FBS, 2 mM L-glutamine, and 100 U/mL of penicillin and 100 μg/mL of streptomycin at 37° C. in an atmosphere of 5% CO2.
as §3
(§6) We further examined the activity of FD-895, PLAD and F-Ara-A in different leukemia cell lines like MEC1 (B chronic lymphocytic leukemia cell line), RAJI (B lymphocyte cell line), JURKAT (T lymphocyte cell line) as to know whether these compounds induce apoptosis or not. We incubated cells with FD-895, PLAD and F-Ara-A with 0, 10, 100, 1000 or 10,000 nM for 48 hours and measured the % SIA by using flow cytometry.

MEC1 = test: as above; settings: MEC1, 0-10,000 nM, 48 hours
Experimental: as §4, §5, §3, §6

RAJI = test: as above; settings: 0-10,000 nM, 48 hours
Experimental: as §4, §5, §3, §6

DNAJB1 = test: Quantitative RT-PCR of unspliced mRNA in CLL cells; settings: for unspliced mRNA of DNAJB1 over time: CLL cells, FD-895, PLAD 100 nM, F-Ara-A 10 μM, 15 min, 1 and 4 hours; for unspliced mRNA of DNAJB1: CLL, 10 nM, 4 hours
Experimental: FIG. 24: Time-dependent increase of unspliced mRNA by FD-895 and PLAD in CLL: CLL cells were treated with 100 nM of FD-895 and PLAD and 10 μM of F-Ara-A for 15 min, 1 and 4 hours. Quantitative RT-PCR using primers specific for each intron quantified unspliced mRNA for DNAJB1. GAPDH was used for normalization. […] Error bars indicate S.D.
(§7) Quantitative RT-PCR using primers specific for each intron quantified unspliced mRNA for DNAJB1 (FIG. 25A) and RIOK3 (FIG. 25B). GAPDH was used for normalization. […] Error bars indicate S.D.
(§8) CLL cells were treated with 100 nM of FD-895 and PLAD and 10 μM of F-Ara-A for 15 minutes, 1 and 4 h. Normal B and CLL cells were treated with 10, 100, and 1000 nM of FD-895 and PLAD and 10 μM of F-Ara-A for 4 h.
(§9) Extraction of total RNA and cDNA synthesis were performed as described earlier. Unspliced mRNA was quantified using a 7900HT fast Real Time PCR System (Applied Biosystems). The amounts of unspliced mRNA of DNAJB1, and RIOK3 were determined by SYBR green (Power SYBR Green PCR Master Mix, Applied Biosystems) real-time quantitative RT-PCR using specific primers designed for the intron of each gene (see additional information section at the end).
(§10) PCR using 0.2 μM of each primer was performed on 20 ng of the obtained cDNA. PCR conditions were 50° C. for 2 min; 95° C. for 10 min; 35 cycles of 94° C. for 20 s, 55° C. for 20 s, followed by 72° C. for 30 s. The mRNA levels were calculated using 2^−ΔΔCT method.^4 GAPDH was used as a control for normalization.

RIOK3 = test: Quantitative RT-PCR of unspliced mRNA in CLL cells; settings: 10 nM, 4 hours
Experimental: as §7, §8, §9, §10

[2] = CLL patients with 17p DEL, 100 nM
[3] = CLL patients with SF3B1 mutation, 100 nM
[4] = CLL patients with SF3B1 wild, 100 nM
[5] = CLL patients with Tp53 mutation (so in the source)
[6] = CLL patients with del (17p), 0-10,000 nM
[7] = B cells from healthy donors, 0-10,000 nM
[8] = normal B cells from healthy donors, 100 nM

Molecule | apoptosis (% SIA) (CLL cells; [2]) | apoptosis (% SIA) (CLL cells; [3]) | apoptosis (% SIA) (CLL cells; [4]) | apoptosis (% SIA) (CLL cells; [5]) | apoptosis (% SIA) (CLL cells; [6]) | apoptosis (% SIA) [1, 7] | apoptosis (% SIA) [1, 8] | cell death (% SIA) (JURKAT) | cell death (% SIA) (MEC1) | cell death (% SIA) (RAJI) | unspliced mRNA of DNAJB1 over time (DNAJB1) | unspliced mRNA of DNAJB1 (DNAJB1) | unspliced mRNA of RIOK3 (RIOK3)
CCC(OC)C(C)C1OC1C(O)C(C)/C=C/C=C(\C)C1OC(=O)CC(O)CCC(C)(O)C(OC(C)=O)/C=C/C1C (centres unmarked) [FD-895] | significant cells death; also recorded: induced apoptosis | significant cells death; also recorded: induced apoptosis | significant cells death | significant death | significant killing | did not induce significant apoptosis | did not induce significant cell death; also recorded: did not show significant apoptosis | high significant cell death | did not show significant apoptosis | high significant cell death | gradual increase in unspliced mRNA | clear increase in unspliced mRNA | clear increase in unspliced mRNA
Pladienolide B | significant cells death; also recorded: induced apoptosis | significant cells death; also recorded: induced apoptosis | significant cells death | significant death | significant killing | did not induce significant apoptosis | did not induce significant cell death; also recorded: did not show significant apoptosis | high significant cell death | did not show significant apoptosis | high significant cell death | gradual increase in unspliced mRNA | clear increase in unspliced mRNA | clear increase in unspliced mRNA
